Earlier results on 1 molecule are cited in patent US9339504B2, “Orally disintegrating tablet compositions of lamotrigine” (ADARE Pharmaceuticals, Inc., priority 2007, dated 2016).

SMILES strings stand for the structures. ≈ marks a conversion by molar mass, not a printed value. Like-named read-outs stand apart in the source and are kept apart here.

Regarding `Nc1nnc(-c2cccc(Cl)c2Cl)c(N)n1` [Lamotrigine, 3,5-diamino-6-(2,3,-dichlorophenyl)-1,2,4-triazine], under “0.01N HCl, 25° C.”, the “solubility in 0.01N HCl” value was about 3000 µg/mL (≈ 11.7 mM). For the same molecule, where the note is “0.1N HCl, 25° C.”, the “solubility in 0.1N HCl” value was about 4000 µg/mL (≈ 15.6 mM). Further, the solubility in water was about 170 µg/mL (≈ 0.664 mM) (25° C.) and about 570 µg/mL (≈ 2.23 mM) (37° C.).
